Patent US10258602B2 (Ocera Therapeutics, Inc., priority 2007, dated 2019)

Tested on: not listed separately
Test: Pharmacokinetic analysis (oral bioavailability, elimination half-life) in the rat
Format: in vivo
Conditions: oral administration, 8 mg/kg dose, HPLC-MS
From the text: D. Pharmacokinetic Analysis of Representative Compounds of the Invention
The pharmacokinetic behavior of compound of the invention can be ascertained by methods well known to those skilled in the art. (Wilkinson, G. R. “Pharmacokinetics: The Dynamics of Drug Absorption, Distribution, and Elimination” in Goodman & Gilman's The Pharmacological Basis of Therapeutics, Tenth Edition, Hardman, J. G.; Limbird, L. E., Eds., McGraw Hill, Columbus, Ohio, 2001, Chapter 1.) The following method was used to investigate the pharmacokinetic parameters (elimination half-life, total plasma clearance, etc.) for intravenous, subcutaneous and oral administration of compounds of the present invention. See also U.S. patent application Ser. No. 11/149,512 and Ser. No. 11/149,731 and Intl. Pat. Appl. No. PCT/US2007/017905.
The table below presents oral bioavailability and elimination half-life data in the rat for representative compounds of the present invention. The parameters were determined by HPLC-MS after oral administration of an 8 mg/kg dose of the compound, except for compound 822 where a 2 mg/kg dose was used.

Row | Elimination Half-life (t1/2, rat, min) | Oral Bioavailability (rat, % F) | SMILES
1 | 128 min | 32 % F | C[C@@H]1CN[C@@H](C2CC2)C(=O)N(C)[C@H](C)C(=O)N[C@H](Cc2ccc(O)cc2)C(=O)N(C)CCCc2ccccc2O1 [Compound 1069]
2 | 268 min | 22 % F | C[C@@H]1CN[C@@H](C2CC2)C(=O)N(C)[C@H](C)C(=O)N[C@H](Cc2ccc(F)cc2)C(=O)N[C@@H](C)CCc2ccccc2O1 [Compound 1011]
3 | 46 min | 6 % F | C[C@@H]1CN[C@@H](C2CC2)C(=O)N(C)[C@H](C)C(=O)N[C@H](Cc2ccc(F)cc2)C(=O)NCCCc2ncccc2O1 [Compound 1027]

Second part, the compound before the results:

Row | SMILES | Elimination Half-life (t1/2, rat, min) | Oral Bioavailability (rat, % F)
4 | C[C@@H]1CN[C@@H](C2CC2)C(=O)N(C)[C@H](C)C(=O)N[C@H](Cc2ccc(O)cc2)C(=O)NCCCc2ccccc2O1 [Compound 989] | 138 min | 7 % F
5 | C[C@@H]1CN[C@@H](C2CC2)C(=O)N(C)[C@H](C)C(=O)N[C@H](Cc2ccc(Cl)cc2)C(=O)NCCCc2ccccc2O1 [Compound 862] | 77 min | 22 % F
6 | C[C@@H]1CN[C@@H](C2CC2)C(=O)N(C)[C@H](C)C(=O)N[C@H](Cc2ccc(F)cc2)C(=O)NCCCc2ccc(F)cc2O1 [Compound 854] | 223 min | 22 % F
7 | C[C@@H]1CN[C@@H](C2CC2)C(=O)N(C)[C@H](C)C(=O)N[C@H](Cc2ccc(F)cc2)C(=O)NCCCc2cccc(F)c2O1 [Compound 935] | 42 min | 11 % F
8 | CC(C)C[C@H]1NC(=O)[C@@H](C)N(C)C(=O)[C@H](C2CC2)NC[C@@H](C)Oc2c(F)cccc2CCCNC1=O [Compound 979] | 34 min | 11 % F
9 | CC(C)C[C@H]1NC(=O)[C@@H](C)N(C)C(=O)[C@H](C2CC2)NC[C@@H](C)Oc2cccnc2CCCNC1=O [Compound 999] | 122 min | 9 % F

Target: human growth hormone secretagogue receptor (hGHS-R1a) (Homo sapiens, UniProt Q92847)
Test: Competitive radioligand binding assay (ghrelin receptor), standard method A
Conditions: not given
From the text: A competitive binding assay at the human growth hormone secretagogue receptor (hGHS-R1a) can be carried out analogously to assays described in the literature. (Bednarek, M. A.; et al. J. Med. Chem. 2000, 43, 4370-4376; Palucki, B. L.; et al. Bioorg. Med. Chem. Lett. […], 11, 1955-1957.) See also U.S. patent application Ser. Nos. 11/149,512 and 11/149,731. Binding activity at the gherlin receptor for representative compounds of the present invention is shown in the Examples below.

Sequence of human growth hormone secretagogue receptor (hGHS-R1a) (Q92847 whole entry): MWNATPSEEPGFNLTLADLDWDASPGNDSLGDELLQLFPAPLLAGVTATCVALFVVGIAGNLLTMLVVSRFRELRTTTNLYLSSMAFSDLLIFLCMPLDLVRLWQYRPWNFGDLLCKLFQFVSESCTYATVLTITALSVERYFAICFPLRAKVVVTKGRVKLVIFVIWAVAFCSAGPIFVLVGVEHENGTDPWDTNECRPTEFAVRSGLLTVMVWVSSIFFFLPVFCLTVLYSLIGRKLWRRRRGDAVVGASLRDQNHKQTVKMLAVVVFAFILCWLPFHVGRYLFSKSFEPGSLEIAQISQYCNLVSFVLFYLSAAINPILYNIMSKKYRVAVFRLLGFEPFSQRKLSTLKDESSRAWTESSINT

Row | Ki | SMILES
10 | ≤ 100 nM | CCC(C)[C@@H]1NCC(C)(C)Oc2ccccc2CCCNC(=O)[C@@H](Cc2ccccc2)NC(=O)[C@@H](C)N(C)C1=O (some centres unmarked) [Compound 923]

Same assay, conditions: binding activity at the human ghrelin receptor, standard method A

Row | Ki | SMILES
11 | ≤ 100 nM | C[C@@H]1CN[C@@H](C2CC2)C(=O)N(C)[C@H](C)C(=O)N[C@H](Cc2ccc(O)cc2)C(=O)N(C)CCCc2ccccc2O1 [Compound 1069]
12 | ≤ 10 nM | C[C@@H]1CN[C@@H](C2CC2)C(=O)N(C)[C@H](C)C(=O)N[C@H](Cc2ccc(F)cc2)C(=O)N[C@@H](C)CCc2ccccc2O1 [Compound 1011]
13 | ≤ 100 nM | C[C@@H]1CN[C@@H](C2CC2)C(=O)N(C)[C@H](C)C(=O)N[C@H](Cc2ccc(F)cc2)C(=O)NCCCc2ncccc2O1 [Compound 1027]
14 | ≤ 100 nM | C[C@@H]1CN[C@@H](C2CC2)C(=O)N(C)[C@H](C)C(=O)N[C@H](Cc2ccccc2)C(=O)NCCCc2ncccc2O1 [Compound 1028]
15 | ≤ 100 nM | CC(C)C[C@H]1NC(=O)[C@@H](C)N(C)C(=O)[C@H](C2CC2)NCCOc2ccccc2CC[C@@H](C)NC1=O [Compound 1086]
16 | > 500 nM | C[C@@H]1CN[C@@H](C2CC2)C(=O)N(C)[C@H](C)C(=O)N[C@H]([C@H](C)c2ccc(O)cc2)C(=O)NCCCc2ncccc2O1 [Compound 1081]
17 | ≤ 500 nM | C[C@@H]1CN[C@@H](C2CC2)C(=O)N(C)[C@H](C)C(=O)N[C@H](Cc2ccc(F)cc2)C(=O)NCCC(C)(C)c2ccccc2O1 [Compound 1071]
18 | ≤ 100 nM | CC1CNC(C2CC2)C(=O)N(C)C(C)C(=O)NC(CC2CCCC2)C(=O)NCCCc2ccccc2O1 (mixture of isomers) [Compound 1047]
19 | ≤ 10 nM | C[C@@H]1C(=O)N[C@H](Cc2ccc(F)cc2)C(=O)NCCCc2ccc(F)c(F)c2OCCN[C@@H](C2CC2)C(=O)N1C [Compound 1100]
20 | ≤ 500 nM | CC[C@H](C)[C@@H]1NCCOc2cnccc2CCCNC(=O)[C@@H](CC(C)C)NC(=O)[C@@H](C)N(C)C1=O [Compound 1022]
21 | ≤ 10 nM | CC[C@H](C)[C@@H]1NC[C@@H](C)Oc2cccnc2CCCNC(=O)[C@@H](Cc2ccc(F)cc2)NC(=O)[C@@H](C)N(C)C1=O [Compound 1029]
22 | ≤ 100 nM | C[C@@H]1CN[C@@H](C2CC2)C(=O)N(C)[C@H](C)C(=O)N[C@H](Cc2cc(F)c(F)c(F)c2)C(=O)NCCCc2ccccc2O1 [Compound 1041]
23 | ≤ 100 nM | C[C@@H]1CN[C@@H](C2CC2)C(=O)N(C)[C@H](C)C(=O)N[C@H](Cc2ccc(Cl)cc2Cl)C(=O)NCCCc2ccccc2O1 [Compound 1039]
24 | ≤ 100 nM | C[C@@H]1CN[C@@H](C2CC2)C(=O)N(C)[C@H](C)C(=O)N[C@H](Cc2cccc(O)c2)C(=O)NCCCc2ncccc2O1 [Compound 1079]
25 | ≤ 100 nM | C[C@@H]1CN[C@@H](C2CC2)C(=O)N(C)[C@H](C)C(=O)N[C@H](CC2CCCCC2)C(=O)NCCCc2ccccc2O1 [Compound 1045]

Second part, the compound before the results:

Row | SMILES | Ki
26 | C[C@@H]1CN[C@@H](C2CC2)C(=O)N(C)[C@H](C)C(=O)N[C@H](Cc2ccc(O)cc2)C(=O)NCCCc2ccccc2O1 [Compound 989] | ≤ 100 nM
27 | C[C@@H]1CN[C@@H](C2CC2)C(=O)N(C)[C@H](C)C(=O)N[C@H](Cc2ccc(Cl)cc2)C(=O)NCCCc2ccccc2O1 [Compound 862] | ≤ 10 nM
28 | C[C@@H]1CN[C@@H](C2CC2)C(=O)N(C)[C@H](C)C(=O)N[C@H](Cc2ccc(F)cc2)C(=O)NCCCc2ccc(F)cc2O1 [Compound 854] | ≤ 100 nM
29 | C[C@@H]1CN[C@@H](C2CC2)C(=O)N(C)[C@H](C)C(=O)N[C@H](Cc2ccc(F)cc2)C(=O)NCCCc2cccc(F)c2O1 [Compound 935] | ≤ 100 nM
30 | CC(C)C[C@H]1NC(=O)[C@@H](C)N(C)C(=O)[C@H](C2CC2)NC[C@@H](C)Oc2c(F)cccc2CCCNC1=O [Compound 979] | ≤ 100 nM
31 | CCC[C@@H]1NC[C@H](C)Oc2ccccc2CCCNC(=O)[C@@H](Cc2ccccc2)NC(=O)[C@@H](C)N(C)C1=O [Compound 859] | ≤ 500 nM
32 | C[C@@H]1C(=O)N[C@H](Cc2ccccc2)C(=O)NCCCc2ccc(F)cc2OCCN[C@@H](C2CC2)C(=O)N1C [Compound 865] | ≤ 100 nM
33 | C[C@@H]1CN[C@@H](C2CC2)C(=O)N(C)[C@H](C)C(=O)N[C@H](Cc2ccccc2)C(=O)NCCCc2ccc(F)cc2O1 [Compound 876] | ≤ 100 nM
34 | C[C@@H]1CCc2ccccc2O[C@H](C)CN[C@@H](C2CC2)C(=O)N(C)[C@H](C)C(=O)N[C@H](Cc2ccc(F)cc2)C(=O)N1 [Compound 1010] | ≤ 10 nM
35 | C[C@@H]1CN[C@@H](C2CC2)C(=O)N(C)[C@H](C)C(=O)N[C@H](Cc2ccc(Cl)cc2)C(=O)NCCCc2c(F)cccc2O1 [Compound 938] | ≤ 100 nM
36 | C[C@@H]1CN[C@@H](C2CC2)C(=O)N(C)[C@H](C)C(=O)N[C@H](Cc2ccc(F)cc2)C(=O)NCCCc2cccc(Cl)c2O1 [Compound 1007] | ≤ 100 nM
37 | C[C@@H]1C(=O)N[C@H](Cc2ccc(O)cc2)C(=O)NCCCc2ncccc2OCCN[C@@H](C2CC2)C(=O)N1C [Compound 988] | ≤ 100 nM
38 | C[C@@H]1CN[C@@H](C2CC2)C(=O)N(C)[C@H](C)C(=O)N[C@H](Cc2ccc(F)cc2)C(=O)NCCCc2cc(F)c(F)cc2O1 [Compound 950] | ≤ 500 nM
39 | CC[C@H](C)[C@@H]1NC[C@@H](C)Oc2ccccc2CCCNC(=O)[C@@H](Cc2ccccc2)NC(=O)[C@@H](CO)N(C)C1=O [Compound 939] | ≤ 100 nM
40 | CC(C)[C@@H]1NC[C@@H](C)Oc2ccccc2CCCNC(=O)[C@@H](Cc2ccccc2)NC(=O)[C@@H](C)N(C)C1=O [Compound 871] | ≤ 500 nM
41 | CC[C@H](C)[C@@H]1NC[C@@H](C)Oc2ccccc2CCCNC(=O)[C@@H](Cc2ccc(Cl)cc2)NC(=O)[C@@H](C)N(C)C1=O [Compound 878] | ≤ 100 nM
42 | C[C@@H]1C(=O)N[C@H](Cc2ccc(O)cc2)C(=O)NCCCc2cccc3c2O[C@@H](CC3)CN[C@@H](C2CC2)C(=O)N1C [Compound 1024] | ≤ 100 nM
43 | C[C@@H]1C(=O)N[C@H](Cc2ccc(O)cc2)C(=O)NCCCc2cccc3c2O[C@H](CC3)CN[C@@H](C2CCCCC2)C(=O)N1C [Compound 1105] | ≤ 1 nM
44 | CC(C)[C@@H]1NC[C@@H](C)Oc2ccccc2CCCNC(=O)[C@@H](Cc2ccc(F)cc2)NC(=O)[C@@H](C)N(C)C1=O [Compound 857] | ≤ 500 nM
45 | C[C@@H]1CN[C@@H](C2CC2)C(=O)N(C)[C@H](C)C(=O)N[C@H](Cc2ccc(Cl)cc2)C(=O)NCCCc2cc(F)c(F)cc2O1 [Compound 951] | ≤ 500 nM
46 | C[C@@H]1CN[C@@H](C2CC2)C(=O)N(C)[C@H](C)C(=O)N[C@H](Cc2ccncc2)C(=O)NCCCc2ccccc2O1 [Compound 977] | ≤ 500 nM
47 | C[C@@H]1C(=O)N[C@H](Cc2ccc(Cl)cc2)C(=O)NCCCc2cccc3c2OC(CC3)CN[C@@H](C2CC2)C(=O)N1C (some centres unmarked) [Compound 947] | ≤ 10 nM
48 | CC[C@H](C)[C@@H]1NC[C@@H](C)Oc2ccccc2CCCNC(=O)[C@@H](Cc2ccncc2)NC(=O)[C@@H](C)N(C)C1=O [Compound 978] | ≤ 100 nM
49 | CCC[C@@H]1NC[C@@H](C)Oc2ccccc2CCCNC(=O)[C@@H](Cc2ccc(F)cc2)NC(=O)[C@@H](C)N(C)C1=O [Compound 853] | ≤ 100 nM
50 | C[C@@H]1C(=O)N[C@H](Cc2cccc(Cl)c2)C(=O)NCCCc2ccccc2OCCN[C@@H](C2CC2)C(=O)N1C [Compound 873] | ≤ 100 nM
